In US8729089B2 (Gilead Sciences, Inc., priority 2006, dated 2014):

How the values were obtained:
[1] = test system: HCV replicon in human hepatoma Huh-7 cell line; assay: Anti-HCV replicon assay (EC50, luciferase); assay type: cell-based; details: Hepatitis C virus, Huh-7, 72 h
Method in brief: (§1)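 Cytotoxicity (CC50) measured by CellTiter-Glo and antiviral activity (EC50) by luciferase signal from lysed cells, both by luminescence. Replicon-bearing Huh-7 cells, 6000 per well, incubated 3 days at 37 °C with threefold-diluted compound (0.5% DMSO for DMSO-dissolved compounds).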

[2] = CC50 assay (CellTiter-Glo) in Huh-7 HCV replicon cells; assay type: cell-based, human; details: human, 3 days incubation, CellTiter-Glo readout
Method in brief: as §1

SMILES	EC50 [1] [µM]	CC50 at 3 days [2] [µM]
CC(C)(C)OC(=O)N1CCC(NS(=O)(=O)c2cc(-c3ccc4nc(NCc5ccc(S(N)(=O)=O)cc5)nc(NCC(F)(F)F)c4n3)ccc2Cl)CC1 [Example 201, 4-{2-Chloro-5-[2-(4-sulfamoyl-benzylamino)-4-(2,2,2-trifluoro-ethylamino)-pyrido[3,2-d]pyrimidin-6-yl]-benzenesulfonylamino}-piperidine-1-carboxylic acid tert-butyl ester]	< 0.1	5 to 25
NS(=O)(=O)c1ccc(CNc2nc(NCC(F)(F)F)c3nc(-c4ccc(Cl)c(S(N)(=O)=O)c4)ccc3n2)cc1 [Example 202, 2-Chloro-5-[2-(4-sulfamoyl-benzylamino)-4-(2,2,2-trifluoro-ethylamino)-pyrido[3,2-d]pyrimidin-6-yl]-benzenesulfonamide]	< 0.1	< 5
NS(=O)(=O)c1ccc(CNc2nc(NCC(F)(F)F)c3nc(-c4ccnnc4)ccc3n2)cc1 [Example 203, 4-{[6-Pyridazin-4-yl-4-(2,2,2-trifluoro-ethylamino)-pyrido[3,2-d]pyrimidin-2-ylamino]-methyl}-benzenesulfonamide]	< 0.1	> 25
CC(C)N1CCN(S(=O)(=O)c2cc(-c3ccc4nc(NCc5ccc(S(N)(=O)=O)cc5)nc(NCC(F)(F)F)c4n3)ccc2F)CC1 [Example 204, 4-{[6-[4-Fluoro-3-(4-isopropyl-piperazine-1-sulfonyl)-phenyl]-4-(2,2,2-trifluoro-ethylamino)-pyrido[3,2-d]pyrimidin-2-ylamino]-methyl}-benzenesulfonamide]	< 0.1	< 5
CC(C)(C)OC(=O)N1CC[C@@H](NS(=O)(=O)c2cc(-c3ccc4nc(NCc5ccc(S(N)(=O)=O)cc5)nc(NCC(F)(F)F)c4n3)ccc2F)C1 [Example 205, 3-{2-Fluoro-5-[2-(4-sulfamoyl-benzylamino)-4-(2,2,2-trifluoro-ethylamino)-pyrido[3,2-d]pyrimidin-6-yl]-benzenesulfonylamino}-pyrrolidine-1-carboxylic acid tert-butyl ester]	< 0.1	< 5
CN(CC(F)(F)F)c1nc(NCc2ccc(S(N)(=O)=O)cc2)nc2ccc(-c3ccc(F)cc3)nc12 [Example 206, 4-({6-(4-Fluoro-phenyl)-4-[methyl-(2,2,2-trifluoro-ethyl)-amino]-pyrido[3,2-d]pyrimidin-2-ylamino}-methyl)-benzenesulfonamide]	< 0.1	< 5
C[C@H](N)C(=O)Nc1ccc(-c2ccc3nc(NCc4ccc(S(N)(=O)=O)cc4)nc(NCC(F)(F)F)c3n2)cc1Cl [Example 207, 2-Amino-N-{2-chloro-4-[2-(4-sulfamoyl-benzylamino)-4-(2,2,2-trifluoro-ethylamino)-pyrido[3,2-d]pyrimidin-6-yl]-phenyl}-propionamide]	< 0.1	< 5
C[C@H](O)C(=O)Nc1ccc(-c2ccc3nc(NCc4ccc(S(N)(=O)=O)cc4)nc(NCC(F)(F)F)c3n2)cc1Cl [Example 208, N-{2-Chloro-4-[2-(4-sulfamoyl-benzylamino)-4-(2,2,2-trifluoro-ethylamino)-pyrido[3,2-d]pyrimidin-6-yl]-phenyl}-2-hydroxy-propionamide]	< 0.1	5 to 25
C[C@H](O)C(=O)Nc1ccc(-c2ccc3nc(NCc4ccc(S(N)(=O)=O)cc4)nc(NCC(F)(F)F)c3n2)cc1F [Example 209, N-{2-Fluoro-4-[2-(4-sulfamoyl-benzylamino)-4-(2,2,2-trifluoro-ethylamino)-pyrido[3,2-d]pyrimidin-6-yl]-phenyl}-2-hydroxy-propionamide]	< 0.1	< 5
C[C@H](O)C(=O)Nc1ccc(-c2ccc3nc(NCc4ccc(S(N)(=O)=O)cc4)nc(NCC(F)(F)F)c3n2)cc1 [Example 210, 2-Hydroxy-N-{4-[2-(4-sulfamoyl-benzylamino)-4-(2,2,2-trifluoro-ethylamino)-pyrido[3,2-d]pyrimidin-6-yl]-phenyl}-propionamide]	< 0.1	> 25
COC(=O)Nc1ccc(-c2ccc3nc(NCc4ccc(S(N)(=O)=O)cc4)nc(NCC(F)(F)F)c3n2)cc1 [Example 211, {4-[2-(4-Sulfamoyl-benzylamino)-4-(2,2,2-trifluoro-ethylamino)-pyrido[3,2-d]pyrimidin-6-yl]-phenyl}-carbamic acid methyl ester]	< 0.1	5 to 25
N#Cc1ccc(-c2ccc3nc(NCc4ccc(S(N)(=O)=O)cc4)nc(NCC(F)(F)F)c3n2)cc1 [Example 212, 4-{[6-(4-Cyano-phenyl)-4-(2,2,2-trifluoro-ethylamino)-pyrido[3,2-d]pyrimidin-2-ylamino]-methyl}-benzenesulfonamide]	< 0.1	5 to 25
NS(=O)(=O)c1ccc(CNc2nc(NCC(F)(F)F)c3nc(-c4ccc(F)c(S(=O)(=O)N[C@@H]5CCNC5)c4)ccc3n2)cc1 [Example 213, 2-Fluoro-N-pyrrolidin-3-yl-5-[2-(4-sulfamoyl-benzylamino)-4-(2,2,2-trifluoro-ethylamino)-pyrido[3,2-d]pyrimidin-6-yl]-benzenesulfonamide]	< 0.1	< 5
NS(=O)(=O)c1ccc(CNc2nc(NCC(F)(F)F)c3nc(-c4ccc(F)c(S(=O)(=O)NC5CCNCC5)c4)ccc3n2)cc1 [Example 214, 2-Fluoro-N-piperidin-4-yl-5-[2-(4-sulfamoyl-benzylamino)-4-(2,2,2-trifluoro-ethylamino)-pyrido[3,2-d]pyrimidin-6-yl]-benzenesulfonamide]	< 0.1	5 to 25
CC(C)(C)OC(=O)N1CCC(NS(=O)(=O)c2cc(-c3ccc4nc(NCc5ccc(S(N)(=O)=O)cc5)nc(NCC(F)(F)F)c4n3)ccc2F)CC1 [Example 215, 4-{2-Fluoro-5-[2-(4-sulfamoyl-benzylamino)-4-(2,2,2-trifluoro-ethylamino)-pyrido[3,2-d]pyrimidin-6-yl]-benzenesulfonylamino}-piperidine-1-carboxylic acid tert-butyl ester]	< 0.1	5 to 25
C[C@H](N)C(=O)Nc1ccc(-c2ccc3nc(NCc4ccc(S(N)(=O)=O)cc4)nc(NCC(F)(F)F)c3n2)cc1F [Example 216, 2-Amino-N-{2-fluoro-4-[2-(4-sulfamoyl-benzylamino)-4-(2,2,2-trifluoro-ethylamino)-pyrido[3,2-d]pyrimidin-6-yl]-phenyl}-propionamide]	< 0.1	< 5
NS(=O)(=O)c1ccc(CNc2nc(NCC(F)(F)F)c3nc(-c4ccc(F)c(S(=O)(=O)N5CCNCC5)c4)ccc3n2)cc1 [Example 217, 4-{[6-[4-Fluoro-3-(piperazine-1-sulfonyl)-phenyl]-4-(2,2,2-trifluoro-ethylamino)-pyrido[3,2-d]pyrimidin-2-ylamino]-methyl}-benzenesulfonamide]	< 0.1	< 5
CC(C)(C)OC(=O)N1CCN(S(=O)(=O)c2cc(-c3ccc4nc(NCc5ccc(S(N)(=O)=O)cc5)nc(NCC(F)(F)F)c4n3)ccc2F)CC1 [Example 218, 4-{2-Fluoro-5-[2-(4-sulfamoyl-benzylamino)-4-(2,2,2-trifluoro-ethylamino)-pyrido[3,2-d]pyrimidin-6-yl]-benzenesulfonyl}-piperazine-1-carboxylic acid tert-butyl ester]	< 0.1	5 to 25
